Data on seven compounds can be found in publication PMC4286194 (Biochemical Journal, 2015).

Common to all, as to assay type: cell-based, mouse
Assay [1] has as its system Bone-marrow-derived macrophages. In words: IL-10 secretion (BIOPLEX) in LPS-stimulated macrophages. Conditions: 10 μM; LPS-stimulated. Here is the method: The concentration of TNFα, IL-6, IL-10 and IL-12p40 in cell-free culture supernatants were measured using the Bio-Plex Pro Assay system (Bio-Rad).
Assay [2] shares this test system. In words: TLR signalling immunoblots (MAPKs, MSK1/2, CREB, IKKs, TBK1). Conditions: 3 μM bosutinib, 0.3 μM dasatinib or 0.5 μM HG-9-91-01. Background: Immunoblotting shows a protein as a band on a membrane.
Description: RAW264.7 cells were cultured in DMEM containing 10% FBS, 2 mM glutamine and penicillin and streptomycin. […] Cells were treated for 1 h with or without inhibitors and then stimulated for up to 24 h with either 1 μg/ml Pam3CSK4 or 100 ng/ml LPS.
Cells were extracted in lysis buffer [50 mM Tris/HCl, pH 7.4, 1 mM EDTA, 1 mM EGTA, 50 mM NaF, 5 mM sodium pyrophosphate, 10 mM sodium β-glycerol 1-phosphate, 1 mM DTT, 1 mM sodium orthovanadate, 0.27 M sucrose, 1% (v/v) Triton X-100, 1 μg/ml aprotinin, 1 μg/ml leupeptin and 1 mM PMSF]. Cell extracts were clarified by centrifugation and protein concentrations were determined using the Bradford assay. To immunoprecipitate endogenous CRTC3, 1 mg of cell extract was incubated with 5 μg of anti-CRTC3 [13] covalently cross-linked on to Protein G–Sepharose. Immune complexes were washed three times with lysis buffer, eluted in 1% SDS and separated by SDS/PAGE. To detect proteins in cell lysates, 20 μg of protein extract was separated by SDS/PAGE. After transfer to PVDF membranes, proteins were detected by immunoblotting and visualized by treating the blots with ECL (GE Healthcare) followed by autoradiography.
For assay [3] the test system is unchanged. In words: CREB-dependent gene transcription (qPCR). The note with it: macrophages. The method, then: mRNA was extracted from cells using the MicroElute Total RNA kit following the manufacturers’ instructions (Omega Bio-Tek). cDNA was generated from 0.5 μg of total RNA using the iScript cDNA synthesis kit and quantified by quantitative real-time PCR (qPCR) using the SsoFast EvaGreen Supermix on a CFX384 real-time system (Bio-Rad Laboratories). The relative expression of each gene was calculated from CT values using the Pfaffl method and was normalized against the mRNA levels of housekeeping genes including 18S RNA and GAPDH. Results are reported relative to untreated control cells, which were set to 1.
(In general: Quantitative PCR measures a nucleic acid by following its amplification.)

Take `C#Cc1cccc(Nc2ncnc3cc(OCCOC)c(OCCOC)cc23)c1` [Erlotinib, erlotinib]: in assay [1], the IL-10 production entry is reported as “failed to elevate IL-10 production”.
Still for that read-out and setting: the same measure for `COc1cc2ncnc(Nc3ccc(F)c(Cl)c3)c2cc1OCCCN1CCOCC1` [Gefitinib, gefitinib]: “failed to elevate IL-10 production”.
For `COc1ccc(N(C(=O)Nc2c(C)cccc2C)c2cc(Nc3ccc(N4CCN(C)CC4)cc3)ncn2)c(OC)c1` [HG-9-91-01], in assay [2], the “TLR-stimulated phosphorylation of ERK1/2, JNK1/2, p38α/β MAPKs, MSK1/2, IKKα/β, TBK1 and their direct substrates” value was “occurred normally”.
For `Cc1ccc(NC(=O)c2ccc(CN3CCN(C)CC3)cc2)cc1Nc1nccc(-c2cccnc2)n1` [Imatinib, imatinib], in assay [1], the IL-10 production entry is listed as “failed to elevate IL-10 production”. For the same compound, the “CREB-dependent gene transcription and IL-10 production” value in assay [3] was “fail to induce CREB-dependent gene transcription and to elevate IL-10 production”.
In the case of `CS(=O)(=O)CCNCc1ccc(-c2ccc3ncnc(Nc4ccc(OCc5cccc(F)c5)c(Cl)c4)c3c2)o1` [Lapatinib, lapatinib], the IL-10 production entry in assay [1] is given as “failed to elevate IL-10 production”.
In the case of `CCN(CC)CCNC(=O)c1c(C)[nH]c(/C=C2\C(=O)Nc3ccc(F)cc32)c1C` [Sunitinib, sunitinib], in assay [1], the IL-10 production result is recorded as “failed to elevate IL-10 production”.
With `COc1cc2/c(=N/c3ccc(Br)cc3F)nc[nH]c2cc1OCC1CCN(C)CC1` [Vandetinib, vandetinib], the IL-10 production entry in assay [1] is recorded as “failed to elevate IL-10 production”.
